In PubChem BioAssay (NCI):
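Test compounds were applied to cells in 96-well plates for 48 hours at 5 doses. TGI marks complete inhibition of growth.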

Assays:
Test in all cases: NCI tumour cell line growth inhibition, 48 h
CCRF-CEM leukemia = tested on: CCRF-CEM leukemia
LOX IMVI melanoma = tested on: LOX IMVI melanoma
SF-295 CNS = tested on: SF-295 CNS
SR leukemia = tested on: SR leukemia
BT-549 breast = tested on: BT-549 breast
ACHN renal = tested on: ACHN renal
HOP-92 NSCLC = tested on: HOP-92 NSCLC
OVCAR-3 ovarian = tested on: OVCAR-3 ovarian
MDA-MB-435 = tested on: MDA-MB-435
UACC-62 melanoma = tested on: UACC-62 melanoma
UACC-257 melanoma = tested on: UACC-257 melanoma
A549 NSCLC = tested on: A549 NSCLC
KM12 colon = tested on: KM12 colon
MOLT-4 leukemia = tested on: MOLT-4 leukemia
786-0 renal = tested on: 786-0 renal
NCI-H522 lung = tested on: NCI-H522 lung
M14 melanoma = tested on: M14 melanoma
NCI-H460 lung = tested on: NCI-H460 lung
HCT-116 colon = tested on: HCT-116 colon
SNB-19 CNS = tested on: SNB-19 CNS
NCI/ADR-RES ovarian = tested on: NCI/ADR-RES ovarian
RPMI-8226 leukemia = tested on: RPMI-8226 leukemia
SK-OV-3 ovarian = tested on: SK-OV-3 ovarian
CAKI-1 renal = tested on: CAKI-1 renal
MDA-MB-231 breast = tested on: MDA-MB-231 breast
SN12C renal = tested on: SN12C renal
K-562 leukemia = tested on: K-562 leukemia
U251 CNS = tested on: U251 CNS
PC-3 prostate = tested on: PC-3 prostate
TK-10 renal = tested on: TK-10 renal
DU-145 prostate = tested on: DU-145 prostate
SK-MEL-28 melanoma = tested on: SK-MEL-28 melanoma
HS 578T breast = tested on: HS 578T breast
HOP-62 NSCLC = tested on: HOP-62 NSCLC
MCF7 breast = tested on: MCF7 breast
SF-539 CNS = tested on: SF-539 CNS
T-47D breast = tested on: T-47D breast
HL-60(TB) leukemia = tested on: HL-60(TB) leukemia
HCC-2998 colon = tested on: HCC-2998 colon
HCT-15 colon = tested on: HCT-15 colon
SK-MEL-2 melanoma = tested on: SK-MEL-2 melanoma
COLO 205 colon = tested on: COLO 205 colon
NCI-H23 lung = tested on: NCI-H23 lung
UO-31 renal = tested on: UO-31 renal
EKVX NSCLC = tested on: EKVX NSCLC
OVCAR-8 ovarian = tested on: OVCAR-8 ovarian
NCI-H226 lung = tested on: NCI-H226 lung
RXF 393 renal = tested on: RXF 393 renal
SF-268 CNS = tested on: SF-268 CNS
MALME-3M melanoma = tested on: MALME-3M melanoma
HT29 colon = tested on: HT29 colon

Measured: TGI

CCOc1ccc2c(c1)c(CC(=O)O)cn2C
> 100 µM: all assays above
